Experimental findings from BindingDB's records for doi:10.1021/jm001055e (Friedrich-Alexander University, 2001) are described below.

The assay addresses T1, D(4) dopamine receptor (Homo sapiens, UniProt P21917).
T1 sequence (P21917 whole entry): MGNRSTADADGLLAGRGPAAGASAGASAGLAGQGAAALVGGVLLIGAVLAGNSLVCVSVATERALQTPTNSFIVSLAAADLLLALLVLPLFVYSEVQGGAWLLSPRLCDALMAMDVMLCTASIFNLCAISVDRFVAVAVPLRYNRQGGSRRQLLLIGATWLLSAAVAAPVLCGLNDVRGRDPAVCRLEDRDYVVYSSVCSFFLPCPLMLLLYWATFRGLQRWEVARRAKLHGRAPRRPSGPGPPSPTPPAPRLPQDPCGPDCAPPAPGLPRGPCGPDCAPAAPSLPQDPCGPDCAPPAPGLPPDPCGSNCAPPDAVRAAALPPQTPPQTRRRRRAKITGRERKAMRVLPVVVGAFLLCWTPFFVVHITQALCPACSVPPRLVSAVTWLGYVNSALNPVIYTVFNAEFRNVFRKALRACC
The experiment in a line: Ability to displace [3H]spiperone from dopamine receptor D4.4 expressed in CHO-K1 cells.

As usually defined, the Ki is the equilibrium dissociation constant of an inhibitor or competing ligand from its target. In turn, `Clc1ccc(N2CCN(Cc3cc4ccccn4n3)CC2)cc1` [4-(4-Chloro-phenyl)-1-pyrazolo[1,5-a]pyridin-2-ylmethyl-piperazin-1-ium] registered a Ki of 2.19 nM.

With `C#Cc1cccc2c(CN3CCN(c4ccc(Cl)cc4)CC3)cnn12` [3-[4-(4-Chloro-phenyl)-piperazin-1-ylmethyl]-7-ethynyl-pyrazolo[1,5-a]pyridine], the Ki was 1.23 nM.

`Clc1ccc(N2CCN(Cc3cc4ccccc4[nH]3)CC2)cc1` displayed a Ki of 18.2 nM.

In the case of `Cc1cccc2c(CN3CCN(c4ccc(Cl)cc4)CC3)cnn12` [4-(4-Chloro-phenyl)-1-(7-methyl-pyrazolo[1,5-a]pyridin-3-ylmethyl)-piperazin-1-ium], the inhibition constant (Ki) is 2.69 nM.

As for `Clc1ccc(N2CCN(Cc3cnn4c(I)cccc34)CC2)cc1`, the Ki is 5.01 nM.

In turn, `Clc1ccc(N2CCN(Cc3cnn4ccccc34)CC2)cc1Cl` yielded a Ki of 5.62 nM.

`Clc1ccc(N2CCN(Cc3cc[nH]c3)CC2)cc1`: affinity was put at a Ki of 38.9 nM.

`Clc1cccc(N2CCN(Cc3cnn4c3ccc3ccccc34)CC2)c1` registered a Ki of 218 nM.

On to `Clc1cccc(N2CCN(Cc3cnn4ccc5ccccc5c34)CC2)c1`, for which the Ki was 794 nM.

`C#Cc1ccc(N2CCN(Cc3cnn4ccccc34)CC2)cc1` displayed a Ki of 4.37 nM.

`Clc1ccc(N2CCN(Cc3ccccc3)CC2)cc1` yielded a Ki of 251 nM.

In the case of `CCN1CCN(Cc2cnn3ccccc23)CC1`, the Ki was found to be 23900 nM.

`FC(F)(F)c1cccc(N2CCN(Cc3cnn4ccccc34)CC2)c1` registered a Ki of 1.91 nM.

The compound `Cc1cccn2ncc(CN3CCN(c4ccc(Cl)cc4)CC3)c12` [3-[4-(4-Chloro-phenyl)-piperazin-1-ylmethyl]-4-methyl-pyrazolo[1,5-a]pyridine] gave a Ki of 50.1 nM.

Compound `Fc1ccc(N2CCN(Cc3cnn4ccccc34)CC2)cc1` came in with a Ki of 20 nM.

Regarding `Clc1ccc(N2CCN(Cc3ccc[nH]3)CC2)cc1`, the Ki stood at 26.3 nM.

In turn, `OCc1ccc2c(CN3CCN(c4ccccc4)CC3)cnn2c1` showed a Ki of 19.5 nM.

Compound `N#CC(C#N)=Cc1ccc(CN2CCN(c3ccc(Cl)cc3)CC2)[nH]1` [4-(4-Chloro-phenyl)-1-[5-(2,2-dicyano-vinyl)-1H-pyrrol-2-ylmethyl]-piperazin-1-ium] displayed a Ki of 9.55 nM.
